Here are results for 8 molecules from PubChem BioAssay (NCI).

Assay in all cases: DTP human tumour cell line panel, 48 h
Test [1] relates to 786-0 renal.
The test system of test [2] is SNB-75 CNS.
Test [3] has as its system KM12 colon.
Test [4] concerns MDA-MB-231 breast.
Test [5] deals with SK-OV-3 ovarian.
The subject of test [6] is OVCAR-5 ovarian.
Test [7] deals with SK-MEL-5 melanoma.
Test [8] has as its system HCC-2998 colon.
In test [9] the test system is OVCAR-3 ovarian.
Test [10] concerns IGROV1 ovarian.

SMILES strings stand for the structures.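 48-hour exposure; five concentrations; linearly interpolated endpoints. GI50: concentration for 50% inhibition of growth. TGI: total growth inhibition.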

Turning to `O=Nc1ccc(O)c(=O)cc1`, the GI50 in [1] was 2.18 µM; in test [2] it was 3.77 µM; in test [3], 5.99 µM; in test [4], 2.31 µM; in [5] it was 16.2 µM; in test [6], 5.49 µM. Further, the GI50 in [7] was 3.63 µM; in test [8] it was 3.35 µM; in [9], 1.39 µM; in test [10], 3.77 µM. For the same molecule, the total growth inhibition concentration (TGI) was determined as 5.52 µM in [1]; 17.2 µM in [2]; 16.3 µM in [3]; 8.79 µM in test [4]; 37.3 µM in [5]; 17.8 µM in [6]. Further, the TGI in test [7] came out at 10.6 µM; in test [8], 13.5 µM; in test [9] it was 5.07 µM; in test [10], 11.3 µM.
With `CS(=O)(=O)Nc1cncc(-c2ccc3ncnc(Nc4ccc(F)c(Cl)c4)c3c2)c1`, the GI50 in [1] was 2.7 µM; in test [2], 0.434 µM; in test [3] it was 3.49 µM; in [4] it was 2.92 µM; in test [5], 2.09 µM; in test [6], 2.4 µM. The GI50 in test [7] was 1.83 µM; in test [8], 4.19 µM; in [9], 1.58 µM; in [10], 0.34 µM. In addition, the TGI in test [1] stood at 14.8 µM; in test [2], 6.92 µM; in test [3], 13.3 µM; in [4], 17.6 µM; in test [5], 6.54 µM; in [6], 22 µM. Besides, the TGI is 4.48 µM in test [7], 16.8 µM in [8], 7.19 µM in test [9] and 1.91 µM in [10].
Consider `CC(=O)Nc1ccc2c(c1)C(c1ccccc1Cl)=Nc1c(n[nH]c1C)N2`, for which the GI50 in test [1] was 7.79 µM; in test [2], 0.732 µM; in test [3], 0.253 µM; in [4], above 17.1 µM; in test [5], above 25 µM; in test [6], 24.6 µM. Also, the GI50 in test [7] was 17.6 µM; in test [8], 16.7 µM; in test [9], 9.06 µM; in test [10] it was 5.66 µM. Moreover, the total growth inhibition concentration (TGI) in [1] was above 25 µM; in [2], 6.24 µM; in [3] it was above 25 µM; in test [4], above 25 µM; in [5], above 25 µM; in [6] it was above 25 µM. The total growth inhibition concentration (TGI) in test [7] is above 25 µM; in test [8], above 25 µM; in [9], above 25 µM; in test [10], above 24 µM.
`COC[C@@H](N=C1NC(=O)/C(=C/c2ccc3ncccc3c2)S1)c1ccccc1`: the GI50 in test [1] is 10.2 µM; in test [2], 4.83 µM; in test [3], 10.8 µM; in test [4], 12.7 µM; in test [5], 9.35 µM; in [6] it was above 25 µM. For the same molecule, the GI50 in test [7] was 7.51 µM; in test [8], 12.3 µM; in test [9], 9.38 µM; in [10], 12.9 µM. Also, the TGI in test [1] is above 25 µM; in test [2] it was above 22 µM; in [3], above 25 µM; in [4], above 25 µM; in [5], above 25 µM; in [6] it was above 25 µM. The TGI in test [7] was 24.9 µM; in test [8], above 25 µM; in test [9], above 25 µM; in [10] it was above 25 µM.
Turning to `CC(C)(C)c1ccc(S(=O)(=O)Oc2ccc3c4c(c(=O)oc3c2)CCCCC4)cc1`, the GI50 in test [1] was 25.3 µM; in test [2], 13.3 µM; in [3], above 100 µM; in [4], 15.2 µM; in test [5], 19.7 µM; in test [6], 37 µM. For the same molecule, the GI50 in [7] is 5.48 µM; in test [8] it was above 100 µM; in test [9], 18.4 µM; in [10], 14.9 µM. Further, the TGI in [1] is above 100 µM; in test [2] it was 36.8 µM; in test [3], above 100 µM; in test [4], 49.3 µM; in test [5] it was 52.2 µM; in test [6], above 100 µM. For the same molecule, the TGI is 85.4 µM in test [7], above 100 µM in [8], above 100 µM in [9] and 48.5 µM in test [10].
For `COc1cc(C2Cc3ncccc3-c3[nH]c(=O)c4cccnc4c32)cc(OC)c1OC` (stereo not given), the GI50 was 1.41 µM in [1]; 0.255 µM in test [2]; 0.373 µM in test [3]; 3.88 µM in test [4]; 0.376 µM in test [5]; 4.82 µM in test [6]. The GI50 in [7] was 0.339 µM; in test [8] it was 2.24 µM; in test [9] it was 0.323 µM; in test [10] it was 0.46 µM. For the same molecule, the total growth inhibition concentration (TGI) in test [1], in test [2], in test [3], in [4], in test [5] and in [6] was above 100 µM throughout. In addition, the TGI was 20.2 µM in [7], above 100 µM in test [8], 5.49 µM in [9] and above 100 µM in [10].
In the case of `CCOC(=O)c1cc(C(=O)c2cc(OC)c(OC)c(OC)c2)n2ncccc12`, the GI50 in test [1] was 2.17 µM; in test [2], 0.175 µM; in test [3], 0.342 µM; in [4], 1.82 µM; in test [5], 0.472 µM; in test [6], 2.72 µM. In addition, the GI50 in test [7] is 0.247 µM; in [8] it was 2.1 µM; in test [9] it was 0.145 µM; in test [10] it was 3.47 µM. For the same molecule, the concentration for total growth inhibition (TGI) is above 100 µM in [1]; 42.4 µM in test [2]; above 100 µM in [3]; above 100 µM in [4]; above 95.1 µM in test [5]; above 100 µM in test [6]. In addition, the TGI in [7] is above 100 µM; in test [8], above 100 µM; in test [9], 1.84 µM; in [10], above 100 µM.
Turning to `O=C1CSCc2sccc21`, the concentration for total growth inhibition (TGI) in test [1], in test [2], in [3], in test [4], in [5] and in [6] was above 100 µM in each case. Also, the TGI in test [7], in test [8], in [9] and in test [10] was above 100 µM each time.

A word on the GI50: it is the concentration giving 50% growth inhibition. By TGI is commonly meant the concentration at which net growth stops. Read a high TGI as lower sensitivity of the cells.
